Residues, ends and D or L forms follow the SMILES beside them.
Tested on: CCD-966SK fibroblast cells
Test: MTT assay (cell viability)
Type: cell-based, human
Conditions: peptide at different concentrations, 24, 48 and 72 hours, FIG. 3
Experimental: CCD-966SK was skin fibroblast cells isolated from human breast and was purchased from BCRC (Bioresource Collection and Research Center, Hsinchu, Taiwan). It was cultured in Dulbecco's Modified Eagle Medium (DMEM) containing 10% (v/v) FBS and penicillin/streptomycin (100 IU/[…]) in 5% CO2 at 37° C.
The cells (3×10^3) in 100 μl complete DMEM were seeded in 96-well plates with or without MUC20 peptide NO.10. Ten microliters of 5 mg/ml 3-(4,5-dimethyl-2-thiazolyl)-2,5-diphenyl-2H-tetrazolium bromide solution (MTT; Sigma) was added to each well and incubated at 37° C. for 3 hours. After that, 100 μl 10% SDS in 0.01N HCl was added to dissolve the MTT formazan crystals. The resultant optical density was measured by spectrophotometry at dual wavelengths, 550 and 630 nm.
The cell viability of the CCD-966SK fibroblast cells was analyzed by MTT assays. The results were obtained from three independent experiments. The results of the cells treated with the peptide of SEQ ID NO: 1 for 24 hours (upper panel), 48 hours (middle panel), and 72 hours (lower panel) were shown in FIG. 3.

## C[C@H](NC(=O)[C@H](CCC(=O)O)NC(=O)[C@@H](NC(=O)[C@H](CO)NC(=O)[C@H](CC(=O)O)NC(=O)[C@@H]1CCCN1)[C@@H](C)O)C(=O)N[C@@H](CCCCN)C(=O)O [peptide of SEQ ID NO: 1, ProAspSerThrGluAlaLys] (H-PDSTEAK-OH)
  viability of the CCD-966SK fibroblast cells: did not significantly affect viability
